Reference: US12139487B2, “Compounds and uses thereof” (Foghorn Therapeutics Inc., priority 2022, dated 2024)

Legend:
BRM = target: T1, BRM (Homo sapiens, UniProt P51531); assay: ATPase catalytic activity assay (ADP-Glo), BRM; type: biochemical; conditions: Table 10; for Ratio (BRG1 IC50 (μM) divided by BRM IC50 (μM)): ATPase assay, selectivity BRG1/BRM; for IC50: ATPase catalytic activity assay (ADP-Glo)
T1 construct: made in house; host or cells: High Five insect cells
How it was run: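 ADP-Glo luminescence measures ADP produced by BRM ATPase (30 nM) during 1 h at room temperature. ATP is 400 μM, with 20 nM salmon sperm DNA as cofactor. Buffer: 20 mM Tris pH 8, 20 mM MgCl2, 50 mM NaCl, 0.1% Tween-20, 1 mM DTT.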

BRG-1 = target: T2, BRG-1 (Homo sapiens, UniProt P51532); assay: ATPase catalytic activity assay (ADP-Glo), BRG-1; type: biochemical; conditions: Table 10, read-out: BRG1 IC50
T2 construct: made in house; host or cells: High Five insect cells
How it was run: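 Luminescence read-out: ADP formed by BRG-1 ATPase is converted to ATP and detected by luciferase. Residual ATP is first removed with ADP-Glo Reagent for 40 min at RT; detection reagent is then incubated 60 min at RT before reading.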

T2 sequence (P51532 whole entry): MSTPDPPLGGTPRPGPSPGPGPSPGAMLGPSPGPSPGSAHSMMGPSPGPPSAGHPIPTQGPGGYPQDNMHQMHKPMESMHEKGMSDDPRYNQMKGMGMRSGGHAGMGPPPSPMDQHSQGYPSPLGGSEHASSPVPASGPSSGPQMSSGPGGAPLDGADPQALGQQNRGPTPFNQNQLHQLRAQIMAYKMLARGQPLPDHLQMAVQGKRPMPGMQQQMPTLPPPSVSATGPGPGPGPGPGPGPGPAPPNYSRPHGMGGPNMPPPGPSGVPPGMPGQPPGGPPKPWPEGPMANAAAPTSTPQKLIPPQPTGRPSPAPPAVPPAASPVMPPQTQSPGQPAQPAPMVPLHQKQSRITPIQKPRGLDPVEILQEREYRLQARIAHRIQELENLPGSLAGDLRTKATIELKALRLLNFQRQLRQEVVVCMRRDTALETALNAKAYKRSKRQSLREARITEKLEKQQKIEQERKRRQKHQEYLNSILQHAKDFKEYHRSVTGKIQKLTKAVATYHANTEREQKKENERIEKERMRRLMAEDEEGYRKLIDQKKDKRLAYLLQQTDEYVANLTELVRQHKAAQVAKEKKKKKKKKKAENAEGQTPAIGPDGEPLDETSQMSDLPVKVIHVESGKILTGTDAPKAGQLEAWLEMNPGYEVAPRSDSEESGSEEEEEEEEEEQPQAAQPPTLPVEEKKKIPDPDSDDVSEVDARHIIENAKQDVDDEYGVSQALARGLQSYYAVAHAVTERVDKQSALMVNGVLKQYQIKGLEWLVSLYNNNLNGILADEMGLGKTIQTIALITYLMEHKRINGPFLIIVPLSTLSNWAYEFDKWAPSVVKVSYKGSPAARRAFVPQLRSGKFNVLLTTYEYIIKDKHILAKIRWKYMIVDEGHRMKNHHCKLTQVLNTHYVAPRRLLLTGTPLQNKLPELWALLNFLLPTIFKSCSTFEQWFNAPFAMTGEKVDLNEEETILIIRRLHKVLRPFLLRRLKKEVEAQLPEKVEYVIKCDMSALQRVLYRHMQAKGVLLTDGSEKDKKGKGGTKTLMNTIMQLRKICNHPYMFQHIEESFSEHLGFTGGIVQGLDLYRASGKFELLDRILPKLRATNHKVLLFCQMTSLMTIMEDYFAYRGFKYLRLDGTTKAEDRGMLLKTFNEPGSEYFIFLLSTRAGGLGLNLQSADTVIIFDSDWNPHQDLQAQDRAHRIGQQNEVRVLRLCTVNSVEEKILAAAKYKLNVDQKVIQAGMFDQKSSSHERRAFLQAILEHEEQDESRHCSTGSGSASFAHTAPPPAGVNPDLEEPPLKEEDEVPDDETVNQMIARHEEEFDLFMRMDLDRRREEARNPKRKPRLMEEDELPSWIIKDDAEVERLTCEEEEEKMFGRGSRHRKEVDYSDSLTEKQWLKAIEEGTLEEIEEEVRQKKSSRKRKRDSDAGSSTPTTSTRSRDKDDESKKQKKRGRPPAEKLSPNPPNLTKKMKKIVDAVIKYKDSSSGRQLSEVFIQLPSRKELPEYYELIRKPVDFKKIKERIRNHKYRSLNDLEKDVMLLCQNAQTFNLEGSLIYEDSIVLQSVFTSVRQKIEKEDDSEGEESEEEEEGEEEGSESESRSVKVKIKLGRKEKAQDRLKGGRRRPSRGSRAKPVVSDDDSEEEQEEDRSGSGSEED
T1 sequence (P51531 whole entry): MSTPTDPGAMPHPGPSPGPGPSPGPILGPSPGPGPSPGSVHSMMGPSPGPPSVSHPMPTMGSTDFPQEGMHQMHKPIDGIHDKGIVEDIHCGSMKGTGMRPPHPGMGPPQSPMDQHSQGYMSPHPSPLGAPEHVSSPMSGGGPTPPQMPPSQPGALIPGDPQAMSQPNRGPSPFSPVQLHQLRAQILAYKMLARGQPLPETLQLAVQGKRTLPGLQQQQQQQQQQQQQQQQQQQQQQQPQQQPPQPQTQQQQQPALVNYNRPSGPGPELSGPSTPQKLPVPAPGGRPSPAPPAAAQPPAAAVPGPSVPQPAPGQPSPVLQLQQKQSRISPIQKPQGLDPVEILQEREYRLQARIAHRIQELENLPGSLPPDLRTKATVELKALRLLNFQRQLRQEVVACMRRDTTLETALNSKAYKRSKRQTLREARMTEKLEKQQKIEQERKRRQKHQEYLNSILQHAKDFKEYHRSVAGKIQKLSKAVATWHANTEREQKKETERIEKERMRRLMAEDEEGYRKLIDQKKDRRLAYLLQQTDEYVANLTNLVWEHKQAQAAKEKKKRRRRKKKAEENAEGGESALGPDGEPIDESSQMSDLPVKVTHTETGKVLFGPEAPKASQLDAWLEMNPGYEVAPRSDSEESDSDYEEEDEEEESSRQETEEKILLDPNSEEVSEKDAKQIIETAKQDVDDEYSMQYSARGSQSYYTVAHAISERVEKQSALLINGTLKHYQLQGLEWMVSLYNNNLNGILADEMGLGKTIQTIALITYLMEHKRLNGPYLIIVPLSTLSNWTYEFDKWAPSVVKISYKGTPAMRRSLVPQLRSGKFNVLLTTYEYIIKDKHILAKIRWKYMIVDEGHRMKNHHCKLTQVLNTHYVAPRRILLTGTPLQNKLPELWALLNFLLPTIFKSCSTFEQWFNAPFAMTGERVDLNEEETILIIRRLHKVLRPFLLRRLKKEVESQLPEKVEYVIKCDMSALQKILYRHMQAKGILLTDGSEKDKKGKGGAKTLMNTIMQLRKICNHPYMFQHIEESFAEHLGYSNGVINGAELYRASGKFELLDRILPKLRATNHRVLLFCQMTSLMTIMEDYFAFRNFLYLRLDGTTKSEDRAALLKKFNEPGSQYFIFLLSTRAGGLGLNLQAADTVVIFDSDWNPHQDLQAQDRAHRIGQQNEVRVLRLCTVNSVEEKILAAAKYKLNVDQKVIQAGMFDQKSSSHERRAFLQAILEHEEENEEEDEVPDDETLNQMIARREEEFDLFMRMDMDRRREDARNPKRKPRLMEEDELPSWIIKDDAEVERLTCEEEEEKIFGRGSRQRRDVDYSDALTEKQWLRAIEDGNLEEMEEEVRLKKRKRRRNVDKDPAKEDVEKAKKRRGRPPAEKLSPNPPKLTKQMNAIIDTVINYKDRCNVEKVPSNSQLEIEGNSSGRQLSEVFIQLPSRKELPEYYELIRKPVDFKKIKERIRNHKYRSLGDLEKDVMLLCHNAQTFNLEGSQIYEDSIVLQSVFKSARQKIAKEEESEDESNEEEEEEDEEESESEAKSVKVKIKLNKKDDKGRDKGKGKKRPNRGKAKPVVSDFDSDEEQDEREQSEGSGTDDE

SMILES | Ratio (BRG1 IC50 (μM) divided by BRM IC50 (μM)) (BRM) | IC50 (BRM) | IC50 (BRG-1)
CCOc1nc(C(F)F)ccc1-c1ccc2cnc(CNC(=O)c3cc(F)c4c(c3)S(=O)(=O)[C@@H](F)CCO4)cc2n1 [Compound 151] | 16.49 | 4.9 nM | 76.6 nM
CO[C@@H]1C[C@H]1c1cnc2c(c1)OCCN2c1ccc2cnc(CNC(=O)c3cc(F)c4c(c3)S(=O)(=O)[C@@H](F)CCO4)cc2n1 [Compound 152] | 11.35 | 5 nM | 53 nM
COc1cnc2c(c1)OCCN2c1ccc2cnc(CNC(=O)c3cc(F)c4c(c3)S(=O)(=O)[C@@H](F)CCO4)cc2c1 [Compound 153] | 13.92 | 5 nM | 69.5 nM
CCOCc1cnc2c(c1)OCCN2c1ccc2cnc(CNC(=O)c3cc(F)c4c(c3)S(=O)(=O)[C@@H](F)CCO4)cc2n1 [Compound 154] | 15.21 | 5 nM | 68 nM
O=C(NCc1cc2nc(-c3csnc3OC(F)F)ccc2cn1)c1cc(F)c2c(c1)S(=O)(=O)[C@@H](F)CCO2 [Compound 155] | 19.80 | 5 nM | 88 nM
O=C(NCc1cc2nc(N3CCOc4ccc([C@@H]5C[C@H]5F)nc43)ccc2cn1)c1cc(F)c2c(c1)S(=O)(=O)[C@@H](F)CCO2 [Compound 156] | 23.13 | 5 nM | 97 nM
CC(C)c1cnc2c(c1)OCCN2c1ccc2cnc(CNC(=O)c3cc(F)c4c(c3)S(=O)(=O)[C@@H](F)CCO4)cc2n1 [Compound 157] | 18.45 | 5.1 nM | 96.8 nM
COc1cc(F)ccc1-c1ccc2cnc(CNC(=O)c3cc(F)c4c(c3)S(=O)(=O)[C@@H](F)CCO4)cc2n1 [Compound 158] | 17.08 | 5.1 nM | 86.7 nM
O=C(NCc1cc2nc(N3CCOc4cc(C(F)F)cnc43)ccc2cn1)c1cc(F)c2c(c1)S(=O)(=O)[C@@H](F)CCO2 [Compound 159] | 14.72 | 5.1 nM | 100 nM
Cc1cc(C(=O)NCc2cc3nc(N4CCOc5cc(N6CC[C@H]6C)cnc54)ccc3cn2)cc2c1OCC[C@H](F)S2(=O)=O [Compound 160] | 17.82 | 5.1 nM | 76 nM
Cc1cc2c(-c3ccc4cnc(CNC(=O)c5cc(F)c6c(c5)S(=O)(=O)[C@@H](F)CCO6)cc4n3)cccc2n1C [Compound 161] | 9.63 | 5.1 nM | 49.3 nM
C[C@H]1OC[C@H](F)S(=O)(=O)c2cc(C(=O)NCc3cc4nc(N5CCOc6cc(C7CC7)cnc65)ccc4cn3)ccc21 [Compound 162] | 17.63 | 11.3 nM | 221 nM
[2H]C1([2H])OC([2H])([2H])[C@H](F)S(=O)(=O)c2cc(C(=O)NCc3cc4nc(N5CCOc6ccc(C(F)F)nc65)ccc4cn3)cc(F)c21 [Compound 163] | – | 5.2 nM | 116 nM
O=C(NCc1cc2nc(N3CCOc4ccc([C@H]5C[C@@H]5F)nc43)ccc2cn1)c1cc(F)c2c(c1)S(=O)(=O)[C@@H](F)CCO2 [Compound 164] | 32.00 | 5.2 nM | 172 nM
C[C@@H]1CCN1c1cnc2c(c1)OCCN2c1ccc2cnc(CNC(=O)c3cc(Cl)c4c(c3)S(=O)(=O)[C@@H](F)CCO4)cc2n1 [Compound 165] | 22.18 | 5.3 nM | 143 nM
O=C(NCc1cc2nc(N3CCOc4cc([C@H]5CC5(F)F)cnc43)ccc2cn1)c1cc(F)c2c(c1)S(=O)(=O)[C@@H](F)CCO2 [Compound 166] | 15.93 | 5.3 nM | 83.8 nM
COc1nc(C(F)F)ccc1-c1ccc2cnc(CNC(=O)c3cc(F)c4c(c3)S(=O)(=O)[C@@H](F)COC4)c(F)c2n1 [Compound 167] | 10.82 | 5.3 nM | 56.7 nM
O=C(NCc1cc2nc(N3CCCc4cc(N5C[C@@H](F)[C@H](F)C5)cnc43)ccc2cn1)c1cc(F)c2c(c1)S(=O)(=O)[C@@H](F)CCO2 [Compound 168] | 15.00 | 5.3 nM | 79.5 nM
O=C(NCc1cc2nc(N3CCCc4c(OC(F)F)ccnc43)ccc2cn1)c1cc(F)c2c(c1)S(=O)(=O)[C@@H](F)CCO2 [Compound 169] | 10.91 | 5.3 nM | 58.3 nM
CCOc1cccc(-c2ccc3cnc(CNC(=O)c4cc(F)c5c(c4)S(=O)(=O)[C@@H](F)CCO5)cc3n2)n1 [Compound 170] | 24.59 | 5.3 nM | 122 nM

SMILES | Ratio (BRG1 IC50 (μM) divided by BRM IC50 (μM)) (BRM) | IC50 (BRM) | IC50 (BRG-1)
[2H]C1([2H])Oc2c(F)cc(C(=O)NCc3cc4nc(N5CCOc6cc(N7CC(F)C7)cnc65)ccc4cn3)cc2S(=O)(=O)[C@@]([2H])(F)C1([2H])[2H] [Compound 171] | 16.27 | 5.5 nM | 89.1 nM
O=C(NCc1cc2nc(N3CCCc4cc(N5CCOCC5)cnc43)ccc2cn1)c1cc(F)c2c(c1)S(=O)(=O)[C@@H](F)CCO2 [Compound 172] | 13.09 | 5.5 nM | 74.1 nM
COc1nc([C@H](C)F)ccc1-c1ccc2cnc(CNC(=O)c3cc(F)c4c(c3)S(=O)(=O)[C@@H](F)CCO4)cc2n1 [Compound 173] | 30.21 | 5.5 nM | 178 nM
COc1nc([C@H](C)F)ccc1-c1ccc2cnc(CNC(=O)c3cc(Cl)c4c(c3)S(=O)(=O)[C@@H](F)COC4)cc2n1 [Compound 174] | 28.19 | 5.6 nM | 158 nM
C[C@@H]1CCN1c1cnc2c(c1)OCCN2c1ccc2cnc(CNC(=O)c3cc(C(F)F)c4c(c3)S(=O)(=O)[C@@H](F)COC4)cc2n1 [Compound 175] | 12.83 | 5.6 nM | 49.3 nM
CC(F)(F)c1cnc2c(c1)OCCN2c1ccc2cnc(CNC(=O)c3cc(F)c4c(c3)S(=O)(=O)[C@@H](F)CCO4)cc2n1 [Compound 176] | 17.02 | 5.6 nM | 123 nM
COc1nc(C(F)F)ccc1-c1ccc2cnc(CNC(=O)c3cc(F)c4c(c3)S(=O)(=O)[C@@H](F)CCO4)cc2n1 [Compound 177] | 22.67 | 5.6 nM | 113 nM
O=C(NCc1cc2nc(N3CCCc4sc(C5CC5)nc43)ccc2cn1)c1cc(F)c2c(c1)S(=O)(=O)[C@@H](F)CCO2 [Compound 178] | 34.29 | 5.6 nM | 207 nM
O=C(NCc1cc2cc(-c3ccc(OC(F)F)c(C4CC4)n3)ccc2cn1)c1cc(F)c2c(c1)S(=O)(=O)[C@@H](F)CCO2 [Compound 179] | 10.62 | 5.6 nM | 59.9 nM
O=C(NCc1cc2nc(N3CCOc4cc(OC(F)F)cnc43)ccc2cn1)c1cc(F)c2c(c1)S(=O)(=O)[C@@H](F)CCO2 [Compound 180] | 18.29 | 5.7 nM | 104 nM
COc1ccc(-c2ccc3cnc(CNC(=O)c4cc(F)c5c(c4)S(=O)(=O)[C@@H](F)CCO5)cc3n2)nc1C1CC1 [Compound 181] | 29.09 | 5.7 nM | 146 nM
O=C(NCc1cc2nc(N3CCOc4cc(N5CC[C@@H](F)C5)cnc43)ccc2cn1)c1cc(F)c2c(c1)S(=O)(=O)[C@@H](F)CCO2 [Compound 182] | 16.19 | 5.7 nM | 83.9 nM
O=C(NCc1cc2nc(N3CCOc4cc(N5CC[C@H](F)C5)cnc43)ccc2cn1)c1cc(F)c2c(c1)S(=O)(=O)[C@@H](F)CCO2 [Compound 183] | 12.89 | 5.7 nM | 89.9 nM
O=C(NCc1cc(C#Cc2cccc(OC(F)F)n2)ccn1)c1cc(F)c2c(c1)S(=O)(=O)[C@@H](F)COC2 [Compound 184, (R)—N-((4-((6-(difluoromethoxy)pyridin-2-yl)ethynyl)pyridin-2-yl)methyl)-2,6-difluoro-3,5-dihydro-2H-benzo[e][1,4]oxathiepine-8-carboxamide 1,1-dioxide] | 23.91 | 143 nM | 3420 nM
O=C(NCc1cc2nc(N3CCOc4ccc(C(F)F)nc43)ccc2cn1)c1cc(F)c2c(c1)S(=O)(=O)[C@@H](F)CCO2 [Compound 185] | 21.73 | 5.7 nM | 110 nM
[2H]C1([2H])Oc2c(F)cc(C(=O)NCc3cc4nc(-c5ccc(OC(F)F)c(C6CC6)n5)ccc4cn3)cc2S(=O)(=O)[C@@]([2H])(F)C1([2H])[2H] [Compound 186] | 16.18 | 5.7 nM | 102 nM
O=C(NCc1cc2nc(N3CCOc4cc(N5CCC5)cnc43)ccc2cn1)c1ccc2c(c1)S(=O)(=O)[C@@H](F)CCO2 [Compound 187] | 13.32 | 5.8 nM | 76.6 nM
O=C(NCc1cc2nc(-c3ccnc(N4CCCC4)n3)ccc2cn1)c1cc(F)c2c(c1)S(=O)(=O)[C@@H](F)CCO2 [Compound 188] | 20.95 | 5.8 nM | 132 nM
COCCOc1ccnc2c1CCCN2c1ccc2cnc(CNC(=O)c3cc(F)c4c(c3)S(=O)(=O)[C@@H](F)CCO4)cc2n1 [Compound 189] | 16.84 | 5.8 nM | 107 nM
